Read-outs that look alike come from different tables or passages of the source.
Legend:
[1] = target: WT Pgp (codon-optimized mouse mdr1a Pgp) (Mus musculus, UniProt P21447); experiment: biochemical
Method: (§1) The rate of ATP hydrolysis was measured at 37 °C, by an ATPase-linked enzyme assay, in the absence and presence of drugs, and statistical analysis were done as described[74],[79]. For biophysical studies, Pgp was exchanged into SEC buffer (20 mM HEPES pH 7.4, 150 mM NaCl, 10% glycerol, 0.05% DDM,) by size exclusion chromatography (SEC) on Superdex 200 (1 × 30 cm column)[85].

[2] = target: WL-Pgp (Trp-less Pgp, all eleven Trps substituted) (Mus musculus, UniProt P21447, W1104Y/W132L/W158Y/W208P/W228M/W311Y/W44H/W694I/W704I/W799Y/W851P); experiment: biochemical
Sequence of WL-Pgp (Trp-less Pgp, all eleven Trps substituted) (P21447 whole entry W44H/W132L/W158Y/W208P/W228M/W311Y/W694I/W704I/W799Y/W851P/W1104Y): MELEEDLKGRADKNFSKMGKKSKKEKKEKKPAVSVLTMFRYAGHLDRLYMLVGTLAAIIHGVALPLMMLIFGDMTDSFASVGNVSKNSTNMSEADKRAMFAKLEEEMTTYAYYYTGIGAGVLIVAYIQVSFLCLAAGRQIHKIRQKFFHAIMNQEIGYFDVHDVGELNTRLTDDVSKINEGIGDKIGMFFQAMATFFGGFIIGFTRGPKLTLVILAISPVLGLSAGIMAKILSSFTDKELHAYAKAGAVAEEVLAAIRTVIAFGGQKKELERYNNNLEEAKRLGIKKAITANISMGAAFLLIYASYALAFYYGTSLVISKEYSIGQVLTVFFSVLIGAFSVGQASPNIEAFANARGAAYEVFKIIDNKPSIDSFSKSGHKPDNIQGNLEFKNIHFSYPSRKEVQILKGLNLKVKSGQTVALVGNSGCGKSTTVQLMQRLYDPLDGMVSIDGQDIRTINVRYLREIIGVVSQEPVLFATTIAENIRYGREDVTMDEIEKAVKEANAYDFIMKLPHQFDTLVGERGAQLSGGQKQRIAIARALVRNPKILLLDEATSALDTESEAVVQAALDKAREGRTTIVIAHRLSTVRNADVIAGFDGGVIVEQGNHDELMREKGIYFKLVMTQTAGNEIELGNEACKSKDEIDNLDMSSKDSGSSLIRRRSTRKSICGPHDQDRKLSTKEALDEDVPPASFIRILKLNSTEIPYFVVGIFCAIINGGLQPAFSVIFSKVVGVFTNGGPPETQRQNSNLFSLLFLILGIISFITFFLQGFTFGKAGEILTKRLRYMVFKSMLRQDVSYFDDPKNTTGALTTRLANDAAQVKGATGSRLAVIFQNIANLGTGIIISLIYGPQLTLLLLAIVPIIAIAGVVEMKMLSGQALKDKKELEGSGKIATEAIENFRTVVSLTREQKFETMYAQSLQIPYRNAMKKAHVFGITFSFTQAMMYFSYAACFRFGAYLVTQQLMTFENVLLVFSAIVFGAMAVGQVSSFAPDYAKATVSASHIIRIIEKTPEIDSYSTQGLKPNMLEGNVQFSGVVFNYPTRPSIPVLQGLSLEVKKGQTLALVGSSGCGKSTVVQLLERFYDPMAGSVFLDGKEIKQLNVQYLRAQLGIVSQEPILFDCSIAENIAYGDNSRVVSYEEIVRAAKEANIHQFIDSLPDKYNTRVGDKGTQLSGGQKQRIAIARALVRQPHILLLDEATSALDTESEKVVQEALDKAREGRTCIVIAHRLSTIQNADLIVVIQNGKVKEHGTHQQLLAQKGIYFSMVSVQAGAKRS
Method: as §1

[3] = target: T1, W(3Cyto) Pgp (W44H/W132L/W208P/W228M/W311Y/W694I/W704I/W851P) (Mus musculus, UniProt P21447, W132L/W208P/W228M/W311Y/W44H/W694I/W704I/W851P); conditions: read-out: Km(MgATP), in the presence of 30 μM verapamil
T1 sequence (P21447 whole entry W44H/W132L/W208P/W228M/W311Y/W694I/W704I/W851P): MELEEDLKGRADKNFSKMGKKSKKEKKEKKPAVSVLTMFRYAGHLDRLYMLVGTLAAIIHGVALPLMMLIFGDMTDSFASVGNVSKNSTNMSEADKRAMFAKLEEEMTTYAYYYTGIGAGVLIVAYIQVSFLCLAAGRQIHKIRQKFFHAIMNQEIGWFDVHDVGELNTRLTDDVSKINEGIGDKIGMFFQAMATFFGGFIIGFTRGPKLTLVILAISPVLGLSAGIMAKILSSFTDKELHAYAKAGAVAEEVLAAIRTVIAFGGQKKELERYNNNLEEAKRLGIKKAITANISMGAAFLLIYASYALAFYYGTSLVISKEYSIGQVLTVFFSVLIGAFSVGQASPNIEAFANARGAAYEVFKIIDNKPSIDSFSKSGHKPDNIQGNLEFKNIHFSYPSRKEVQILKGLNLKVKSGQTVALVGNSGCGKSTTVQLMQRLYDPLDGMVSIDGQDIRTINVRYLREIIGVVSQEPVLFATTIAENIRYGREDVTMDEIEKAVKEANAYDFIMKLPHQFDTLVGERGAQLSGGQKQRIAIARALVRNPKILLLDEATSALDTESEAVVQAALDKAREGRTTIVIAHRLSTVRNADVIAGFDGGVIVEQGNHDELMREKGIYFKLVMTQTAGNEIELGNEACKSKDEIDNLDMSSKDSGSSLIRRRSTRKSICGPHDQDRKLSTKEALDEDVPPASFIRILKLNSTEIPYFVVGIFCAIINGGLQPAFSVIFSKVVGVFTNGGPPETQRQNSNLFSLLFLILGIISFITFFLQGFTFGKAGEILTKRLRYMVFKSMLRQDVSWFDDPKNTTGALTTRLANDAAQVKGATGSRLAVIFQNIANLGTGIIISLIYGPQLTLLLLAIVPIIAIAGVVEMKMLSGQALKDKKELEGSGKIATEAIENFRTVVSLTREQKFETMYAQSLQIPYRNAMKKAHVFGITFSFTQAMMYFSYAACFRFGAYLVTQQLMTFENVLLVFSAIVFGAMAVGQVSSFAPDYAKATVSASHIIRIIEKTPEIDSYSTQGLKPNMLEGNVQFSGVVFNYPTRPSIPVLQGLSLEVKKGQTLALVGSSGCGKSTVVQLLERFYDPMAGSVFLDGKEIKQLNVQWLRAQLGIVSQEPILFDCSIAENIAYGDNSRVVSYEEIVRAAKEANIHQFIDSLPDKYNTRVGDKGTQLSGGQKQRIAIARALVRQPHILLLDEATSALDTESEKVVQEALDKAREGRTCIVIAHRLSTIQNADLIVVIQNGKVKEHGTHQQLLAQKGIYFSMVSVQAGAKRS
Method: (§2) The rate of ATP hydrolysis was measured at 37 °C, by an ATPase-linked enzyme assay[87], in the absence and presence of drugs, and statistical analysis were done as described[74],[79].

[4] = target: T1, W(3Cyto) Pgp (W44H/W132L/W208P/W228M/W311Y/W694I/W704I/W851P); experiment: biochemical
Method: as §2

[5] = tested on: S. cerevisiae JPY201 expressing Pgp variants; conditions: 30 µM doxorubicin
Method: Cultures of the transformants were screened again for mating efficiency. […] DNA from the 72 unique mutants was again re-transformed into JPY201 yeast cells for more detailed in vivo functional analysis of fungicidal drug resistance and yeast mating efficiency, which were performed essentially as previously described[74],[79],[84].

[6] = EC50 (concentration required for 50% stimulation of the ATPase activity), WT Pgp, mean ± SD

Sequence of WT Pgp (codon-optimized mouse mdr1a Pgp) (P21447 whole entry): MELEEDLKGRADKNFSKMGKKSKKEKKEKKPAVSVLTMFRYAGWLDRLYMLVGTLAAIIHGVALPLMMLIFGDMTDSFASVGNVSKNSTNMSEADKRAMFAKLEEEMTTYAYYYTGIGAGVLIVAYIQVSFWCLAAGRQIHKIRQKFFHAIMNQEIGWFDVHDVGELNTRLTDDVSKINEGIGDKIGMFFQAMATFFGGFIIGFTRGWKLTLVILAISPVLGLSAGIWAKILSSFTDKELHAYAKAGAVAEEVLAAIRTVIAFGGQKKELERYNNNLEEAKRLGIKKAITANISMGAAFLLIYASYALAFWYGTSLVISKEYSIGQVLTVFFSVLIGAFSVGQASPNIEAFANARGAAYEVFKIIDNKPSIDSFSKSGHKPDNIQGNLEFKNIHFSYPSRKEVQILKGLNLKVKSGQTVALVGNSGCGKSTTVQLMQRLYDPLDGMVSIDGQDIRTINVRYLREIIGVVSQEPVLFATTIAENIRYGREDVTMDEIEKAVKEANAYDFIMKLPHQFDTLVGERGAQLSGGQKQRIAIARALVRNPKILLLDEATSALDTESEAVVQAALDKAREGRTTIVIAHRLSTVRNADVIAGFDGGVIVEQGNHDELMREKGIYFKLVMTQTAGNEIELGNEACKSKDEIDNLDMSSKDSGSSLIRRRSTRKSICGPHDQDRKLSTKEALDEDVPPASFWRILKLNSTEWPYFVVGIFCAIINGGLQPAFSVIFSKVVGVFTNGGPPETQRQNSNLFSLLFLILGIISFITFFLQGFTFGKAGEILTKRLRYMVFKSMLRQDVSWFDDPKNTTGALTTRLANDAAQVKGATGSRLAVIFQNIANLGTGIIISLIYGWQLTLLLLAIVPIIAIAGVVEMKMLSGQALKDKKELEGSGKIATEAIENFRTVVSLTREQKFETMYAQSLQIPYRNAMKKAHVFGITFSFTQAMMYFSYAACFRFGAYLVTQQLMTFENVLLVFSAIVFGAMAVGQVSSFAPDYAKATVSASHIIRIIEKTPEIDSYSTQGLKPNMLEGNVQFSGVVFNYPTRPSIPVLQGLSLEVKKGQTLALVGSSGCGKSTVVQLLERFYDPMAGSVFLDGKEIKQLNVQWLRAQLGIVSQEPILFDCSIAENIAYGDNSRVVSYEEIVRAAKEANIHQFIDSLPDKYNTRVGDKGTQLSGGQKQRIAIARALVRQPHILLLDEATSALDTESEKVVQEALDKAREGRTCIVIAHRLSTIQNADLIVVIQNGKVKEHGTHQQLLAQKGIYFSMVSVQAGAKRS

SMILES	EC50 [1, 6]	EC50 [2]	EC50 [4]	other results
Nc1ncnc2c1ncn2[C@@H]1O[C@H](COP(=O)(O)OP(=O)(O)OP(=O)(O)O)[C@@H](O)[C@H]1O [MgATP]	–	–	–	Km ([1]; read-out: Km(MgATP), WT Pgp, in the presence of 30 μM verapamil, text says mM range): 0.75 ± 0.2 mM; Km ([2]; read-out: Km(MgATP), WL-Pgp, in the presence of 30 μM verapamil, text says mM range): 0.65 ± 0.07 mM; Km [3]: 400 ± 70 µM
CC(C)[C@@H]1NC(=O)[C@H](C)OC(=O)[C@@H](C(C)C)NC(=O)[C@@H](C(C)C)OC(=O)[C@H](C(C)C)NC(=O)[C@H](C)OC(=O)[C@@H](C(C)C)NC(=O)[C@@H](C(C)C)OC(=O)[C@H](C(C)C)NC(=O)[C@H](C)OC(=O)[C@@H](C(C)C)NC(=O)[C@@H](C(C)C)OC1=O [Valinomycin, valinomycin]	330 ± 80 nM	340 ± 90 nM	230 ± 30 nM	EC50 ([1]; 50% stimulation (EC50) of ATPase function, text summary across Wt Pgp, W(3Cyto) and WL-Pgp): ~300 nM
C=CC[C@@H]1/C=C(\C)C[C@H](C)C[C@H](OC)[C@H]2O[C@@](O)(C(=O)C(=O)N3CCCC[C@H]3C(=O)O[C@H](/C(C)=C/[C@@H]3CC[C@@H](O)[C@H](OC)C3)[C@H](C)[C@@H](O)CC1=O)[C@H](C)C[C@@H]2OC [FK506]	84 ± 30 nM	160 ± 40 nM	140 ± 30 nM	–
COc1cccc2c1C(=O)c1c(O)c3c(c(O)c1C2=O)C[C@@](O)(C(=O)CO)C[C@@H]3O[C@H]1C[C@H](N)[C@H](O)[C@H](C)O1 [doxorubicin]	–	–	–	Resistance to doxorubicin (relative to Wt Pgp) ([5]; yeast expressing mutant B (W(3Cyto))): 52 ± 14%; Resistance to doxorubicin (relative to Wt Pgp) ([5]; yeast expressing mutant C (eight TMD Trps replaced)): 43 ± 13%
